Source: patent publication US7166588B2 (priority 2000, dated 2007)
Where a name gives a salt, the structure may show the parent alone.

target: acetylcholinesterase (AChE), human recombinant (Homo sapiens, UniProt P22303); assay: biochemical; details: pre-incubation of the enzyme with inhibitor, read-out: IC50 (AChE, mE, hr)
Sequence (P22303 32-614): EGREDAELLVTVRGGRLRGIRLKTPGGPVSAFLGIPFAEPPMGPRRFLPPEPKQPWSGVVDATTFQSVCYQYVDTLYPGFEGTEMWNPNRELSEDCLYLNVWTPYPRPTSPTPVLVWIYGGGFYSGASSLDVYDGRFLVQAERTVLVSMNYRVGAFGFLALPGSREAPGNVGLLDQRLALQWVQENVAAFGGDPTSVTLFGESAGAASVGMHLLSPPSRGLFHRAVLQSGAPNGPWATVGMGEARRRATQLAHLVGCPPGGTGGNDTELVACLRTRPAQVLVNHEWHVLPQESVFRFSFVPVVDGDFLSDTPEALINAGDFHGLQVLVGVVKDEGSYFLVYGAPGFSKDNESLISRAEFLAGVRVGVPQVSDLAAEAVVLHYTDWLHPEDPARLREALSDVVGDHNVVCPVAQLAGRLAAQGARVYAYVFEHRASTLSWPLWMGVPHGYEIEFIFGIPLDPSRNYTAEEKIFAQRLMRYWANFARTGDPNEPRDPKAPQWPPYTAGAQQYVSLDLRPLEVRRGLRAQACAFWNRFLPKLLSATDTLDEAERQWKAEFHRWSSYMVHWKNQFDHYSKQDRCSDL

With `COc1ccc2c3c1O[C@@H]1C[C@H](O)C=CC31CCN(CCCN)C2` (stereo partly shown) [SPH-1235] as the compound, how does the IC50 read?
Its IC50 is 3.4 µM.

For `CNC(=S)N1CCC23C=C[C@@H](O)C[C@H]2Oc2c(OC)ccc(c23)C1` (stereo partly shown) [SPH-1211], which IC50 is on record?
Its IC50 is 23 µM.

How did the IC50 turn out when `CCN(CC)c1nccc(N2CCC34C=C[C@@H](O)C[C@H]3Oc3c(OC)ccc(c34)C2)n1` (stereo partly shown) [SPH-1245] was run?
Its IC50 is 25 µM.

For `COc1ccc2c3c1O[C@@H]1CC(O)C=CC31CCN(CCCN1CCCCC1)C2` (stereo partly shown) [SPH-1286], which IC50 is on record?
The IC50 was 0.3 µM.

`COc1ccc2c3c1O[C@@H]1C[C@H](O)C=CC31CCN(CCCN1CC3CC1CN3c1ccc(F)cc1)C2` (stereo partly shown) [SPH-1196] was tested. Which IC50 did it give?
Its IC50 is 5.2 µM.

For `COc1ccc2c3c1O[C@@H]1CC(O)C=CC31CCN(C(N)=O)C2` (stereo partly shown) [SPH-1268], which IC50 is on record?
Its IC50 is 44 µM.

How did the IC50 turn out when `COc1ccc2c3c1O[C@@H]1CC(O)C=CC31CCN(C)C2C#N` (stereo partly shown) [SPH-1290] was run?
Its IC50 is 1.2 µM.

Which IC50 does the source give for `COc1ccc2c3c1O[C@H]1CC(O)C=C[C@@]31CC[N+](C)(CCCCl)C2` (single isomer, unassigned; (-)) [SPH-1191, (−)(3-Chloropropyl)-galanthaminium Bromide, 1.25 H2O] here?
Its IC50 is 0.35 µM.

For `COc1cc2c(cc1OC)C(=O)C(CCCCCN1CCC34C=CC(O)C[C@H]3Oc3c(OC)ccc(c34)C1)C2` (stereo partly drawn) [SPH-1359, 2-[5-[(4aS,6R,8aS)-6-Hydroxy-3-methoxy-5,6,9,10,11,12-hexahydro-4aH-benzofuro[3a,3,2-e,f][2]benzazepine-11-yl]pentyl]-5,6-dimethoxyindan-1-one], which IC50 is on record?
Its IC50 is 0.0052 µM.

For `COc1ccc2c3c1O[C@@H]1C[C@H](O)C=CC31CCN(C(=O)Nc1ccccc1)C2` (stereo partly shown) [SPH-1215], which IC50 is on record?
Its IC50 is 70 µM.

For `COc1ccc2c3c1O[C@@H]1CC(O)C=CC31CCN(CC1CC1)C2` (stereo partly shown) [SPH-1289], which IC50 is on record?
Its IC50 is 0.7 µM.

With `COc1ccc2c3c1O[C@@H]1CC(O)C=CC31CCN(C(=O)NC(C)C)C2` (stereo in doubt) [SPH-1214, (6R)-6-Hydroxy-N^11-isopropyl-3-methoxy-5,6,9,10-tetrahydro-4aH-[1]benzofuro[3a,3,2-ef][2]benzazepine-11(12H)carboxamide] as the compound, how does the IC50 read?
Its IC50 is 4.2 µM.

`COc1ccc2c3c1O[C@@H]1CC(O)C=CC31CCN(C(=O)OCC1c3ccccc3-c3ccccc31)C2` (stereo partly shown) [SPH-1292] was tested. Which IC50 did it give?
Its IC50 is 40 µM.

`COc1ccc2c3c1O[C@@H]1CC(O)C=CC31CCN(c1ccccc1)C2` (stereo partly shown) [SPH-1280] was tested. Which IC50 did it give?
The IC50 was 0.5 µM.

With `C#CC[N+]1(C)CCC23C=C[C@@H](O)C[C@H]2Oc2c(OC)cc(C)c(c23)C1` (stereo partly shown) [SPH-1206] as the compound, how does the IC50 read?
Its IC50 is 78 µM.

How did the IC50 turn out when `C=CCNC(=S)N1CCC23C=C[C@@H](O)C[C@H]2Oc2c(OC)ccc(c23)C1` (stereo partly shown) [SPH-1236] was run?
The IC50 was 21 µM.

How did the IC50 turn out when `COc1ccc2c3c1O[C@@H]1C[C@H](O)C=CC31CCN(C(=O)NC(C)C)C2` (stereo partly shown) [SPH-1269] was run?
Its IC50 is 2.6 µM.

With `COc1cc(C)c2c3c1O[C@@H]1C[C@H](O)C=CC31CCN(CCCN1CCCCC1)C2` (stereo partly shown) [SPH-1201] as the compound, how does the IC50 read?
Its IC50 is 46 µM.

Which IC50 does the source give for `COc1ccc2c3c1O[C@@H]1CC(O)C=CC31CCN(C(=S)Oc1ccccc1)C2` (stereo partly shown) [SPH-1328] here?
The IC50 was 7.2 µM.

With `COc1cc2c(cc1OC)C(=O)C(CCCCCN1CCC34C=CC(O)C[C@H]3Oc3c(OC)ccc(c34)C1)C2` (stereo partly shown) [SPH-1375] as the compound, how does the IC50 read?
The IC50 was 0.023 µM.

With `COc1cc(C)c2c3c1OC1CC(O)C=CC31CCN(C)C2C` (stereo not shown) [SPH-1320] as the compound, how does the IC50 read?
The IC50 was 83 µM.

With `COc1ccc2c3c1O[C@@H]1CC(O)C=CC31CCN(c1ccnc(OCCCN(C)C)n1)C2` (stereo in doubt) [SPH-1244, (6R)-11-(2-(3-(Dimethylamino)propoxy)-4-pyrimidinyl)-3-methoxy-5,6,9,10,11,12-hexahydro-4aH-[1]benzofuro[3a,3,2-ef][2]benzazepin-6-ol] as the compound, how does the IC50 read?
The IC50 was 7.6 µM.

With `COc1cc(C)c2c3c1O[C@@H]1C[C@H](O)C=CC31CC[N+](C)(Cc1ccc(C(F)(F)F)cc1)C2` (stereo partly shown) [SPH-1253] as the compound, how does the IC50 read?
The IC50 was 60 µM.

Which IC50 does the source give for `COc1ccc2c3c1O[C@@H]1CC(O)C=CC31CCN(CCCN1CCCCC1)C2` (stereo in doubt) [SPH-1371, (4aα,6b, 8aR* )-4a,5,9,10,111,12-Hexahydro-3-methoxy-11-[3-(1-piperidinyl)propyl]-6H-benzofuro[3a,3,2-ef][2]benzazepin-6-ol, Dihydrobromide, Dihydrate] here?
The IC50 was 0.36 µM.

For `COc1ccc2c3c1O[C@@H]1CC(O)C=CC31CCN(C)C2C` (stereo partly shown) [SPH-1293], which IC50 is on record?
The IC50 was 4.2 µM.

`COc1ccc2c3c1O[C@@H]1C[C@H](O)C=CC31CCN(C(=O)NC(C)(C)C)C2` (stereo partly shown) [SPH-1270] was tested. Which IC50 did it give?
The IC50 was 2.5 µM.

How did the IC50 turn out when `CNC(=S)N1CCC23C=C[C@@H](O)C[C@H]2Oc2c(OC)ccc(c23)C1` (stereo partly shown) [SPH-1287] was run?
Its IC50 is 18.5 µM.

For `COc1ccc2c3c1O[C@@H]1C[C@H](O)C=CC31CCN(C(=O)Nc1ccc3ccccc3c1)C2` (stereo partly shown) [SPH-1232], which IC50 is on record?
Its IC50 is 36 µM.

How did the IC50 turn out when `COC(=O)/C=C(\C(=O)OC)N1CCC23C=C[C@@H](O)C[C@H]2Oc2c(OC)ccc(c23)C1` (stereo partly shown) [SPH-1259] was run?
The IC50 was 140 µM.

With `CCN(CC)c1nc(N(CC)CC)nc(N2CCC34C=C[C@@H](O)C[C@H]3Oc3c(OC)ccc(c34)C2)n1` (stereo partly shown) [SPH-1243] as the compound, how does the IC50 read?
Its IC50 is 40 µM.

For `COc1ccc2c3c1O[C@@H]1CC(O)C=CC31CCN(/C(=N/C#N)SC)C2` (stereo partly shown) [SPH-1272], which IC50 is on record?
The IC50 was 6.7 µM.

With `COc1ccc2c3c1O[C@@H]1CC(O)C=CC31CCN(CC#N)C2` (stereo partly shown) [SPH-1295] as the compound, how does the IC50 read?
The IC50 was 15 µM.

Which IC50 does the source give for `CNC(=S)N1CCC23C=C[C@H](O)CC2Oc2c(OC)cc(Br)c(c23)C1` (stereo partly drawn) [SPH-1209, (6R)-1-Bromo-6-hydroxy-3-methoxy-N^11-methyl-5,6,9,10-tetrahydro-4aH-[1]benzofuro[3a,3,2-ef][2]benzazepine-11(12H)-thiocarboxylic acid amide] here?
The IC50 was 31 µM.

With `COc1ccc2c3c1O[C@@H]1C[C@H](O)C=CC31CCN(C(=O)NC(C)c1ccccc1)C2` (stereo partly shown) [SPH-1267] as the compound, how does the IC50 read?
Its IC50 is 30 µM.

With `COc1ccc2c3c1O[C@H]1CC(O)C=C[C@@]31CC[N+](C)(Cc1ccc(Br)cc1)C2` (single isomer, unassigned; (-)) [SPH-1184, (−)(4-Bromophenyl)methylgalanthaminium bromide hemihydrate] as the compound, how does the IC50 read?
Its IC50 is 0.2 µM.

Which IC50 does the source give for `COc1ccc2c3c1O[C@@H]1C[C@H](O)C=CC31CCN(c1ncccn1)C2` (stereo partly shown) [SPH-1229] here?
Its IC50 is 38 µM.

`COc1ccc2c3c1O[C@@H]1C[C@H](O)C=CC31CCN(C(=O)NC(C)(C)C)C2` (stereo partly shown) [SPH-1221] was tested. Which IC50 did it give?
Its IC50 is 4.8 µM.

With `COc1ccc2c3c1O[C@H]1CC(O)C=CC31CCN(CCCN1CCCCC1)C2` (stereo partly shown) [SPH-1333] as the compound, how does the IC50 read?
The IC50 was 9 µM.

With `COc1ccc2c3c1O[C@@H]1CC(O)C=CC31CCN(CCCN1CC3CC1CN3c1ccc(F)cc1)C2` (stereo partly shown) [SPH-1312] as the compound, how does the IC50 read?
The IC50 was 3 µM.

How did the IC50 turn out when `COc1ccc2c3c1O[C@@H]1C[C@H](N)C=CC31CCN(C)C2` (stereo partly drawn) [SPH-1227, [4aS-(4aα,6α,8aR*)]-4a,5,9,10,11,12-Hexahydro-3-methoxy-11-methyl-6H-benzofuro[3a,3,2-ef][2]benzazepine-6-amine] was run?
The IC50 was 40 µM.

Which IC50 does the source give for `COc1ccc2c3c1O[C@@H]1CC(O)C=CC31CCN(c1cccs1)C2` (stereo partly shown) [SPH-1282] here?
The IC50 was 4 µM.

`COc1ccc2c3c1O[C@@H]1CC(O)C=CC31CCN(C)C2C#N` (stereo partly shown) [SPH-1291] was tested. Which IC50 did it give?
Its IC50 is 0.8 µM.

How did the IC50 turn out when `COc1ccc2c3c1O[C@@H]1CC(O)C=CC31CCN(C(=O)Oc1ccccc1)C2` (stereo partly shown) [SPH-1296] was run?
The IC50 was 46 µM.

For `C#CC[N+]1(C)CC[C@@]23C=C[C@@H](O)C[C@@H]2Oc2c(OC)cc(C)c(c23)C1` (mixture of isomers) [SPH-1251], which IC50 is on record?
Its IC50 is 59 µM.

How did the IC50 turn out when `COc1ccc2c3c1O[C@@H]1CC(O)C=CC31CCN(CC(=O)N1CC3CC1CN3c1ccccc1)C2` (stereo partly shown) [SPH-1314] was run?
The IC50 was 8.4 µM.

For `COc1ccc2c3c1O[C@H]1CC(O)C=CC31CCN(C(=O)NC(C)(C)C)C2` (stereo partly shown) [SPH-1283], which IC50 is on record?
The IC50 was 93 µM.

With `COc1cc(C)c2c3c1O[C@@H]1CC(O)C=CC31CCN(C)C2C#N` (stereo partly shown) [SPH-1317] as the compound, how does the IC50 read?
Its IC50 is 80 µM.

For `COc1cc2c(cc1OC)C(=O)C(CCCCN1CCC34C=CC(O)C[C@H]3Oc3c(OC)ccc(c34)C1)C2` (stereo partly shown) [SPH-1335], which IC50 is on record?
Its IC50 is 0.02 µM.

`COc1ccc2c3c1O[C@@H]1C[C@H](O)C=CC31CCN(CCC(=O)NC(C)(C)C)C2` (stereo partly shown) [SPH-1249] was tested. Which IC50 did it give?
Its IC50 is 45 µM.

With `COc1ccc2c3c1O[C@@H]1CC(O)C=CC31CCN(CCCO)C2` (stereo partly shown) [SPH-1315] as the compound, how does the IC50 read?
The IC50 was 2.8 µM.

For `COc1ccc2c3c1O[C@@H]1C[C@H](O)C=CC31CCN(CCC(=O)NC(C)C)C2` (stereo partly shown) [SPH-1262], which IC50 is on record?
Its IC50 is 54.5 µM.

How did the IC50 turn out when `COc1ccc2c3c1O[C@@H]1C[C@H](O)C=CC31CCN(C(=O)Nc1ccc(Cl)cc1)C2` (stereo partly shown) [SPH-1237] was run?
Its IC50 is 24 µM.

For `COc1ccc2c3c1O[C@H]1CC(O)C=CC31CCN(C(=O)NC(C)C)C2` (stereo partly shown) [SPH-1284], which IC50 is on record?
Its IC50 is 8 µM.

Which IC50 does the source give for `COc1ccc2c3c1O[C@@H]1C[C@H](O)C=CC31CCN(CCCO)C2` (stereo partly shown) [SPH-1220] here?
The IC50 was 7.2 µM.

How did the IC50 turn out when `COc1cc(C)c2c3c1O[C@@H]1C[C@H](O)C=CC31CC[N+](C)(Cc1ccccc1)C2` (stereo partly shown) [SPH-1207] was run?
Its IC50 is 47 µM.

`COc1ccc2c3c1O[C@@H]1C[C@H](O)C=CC31CCN(C=C(C#N)C#N)C2` (stereo partly shown) [SPH-1219] was tested. Which IC50 did it give?
The IC50 was 28.5 µM.

How did the IC50 turn out when `COc1ccc2c3c1O[C@H]1CC(O)C=C[C@@]31CCN(C(=O)OC(C)(C)C)C2` (relative stereo) [SPH-1302, (4aa,6β,8aR*)-4a,5,9,10-Tetrahydro-6-hydroxy-3-methoxy-6H-benzofuro[3a,3,2-ef][2]benzazepine-11(12H)-carboxylic acid-1,1-dimethylethyl ester] was run?
Its IC50 is 23 µM.

For `COc1cc2c(cc1OC)C(=O)C(CCCCN1CCC34C=CC(O)C[C@H]3Oc3c(OC)ccc(c34)C1)C2` (stereo partly shown) [SPH-1376], which IC50 is on record?
The IC50 was 0.02 µM.
